Values quoted from earlier work as cited in US20020187562A1, “Materials for separating and detecting enantiomers of amphetamine or methamphetamine, and their application” (priority 2001, published 2002).

Test system: central nervous system
Details: relative to D-MA

CN[C@H](C)Cc1ccccc1 [L-MA, (R)-(−)-N-methyl-1-phenyl-2-aminopropane]
stimulation to the central nervous system of humans compared with D-MA: much weaker than that of D-MA
